Laboratory results taken from US8952025B2, “Multifunctional radical quenchers and their uses” (Arizona Board of Regents, A Body Corporate of the State of …, priority 2010, dated 2015).
“Also recorded” adds a separate entry of the source.

Legend:
cytochrome c = assay: Cytochrome c reduction assay; type: biochemical; settings: 100 μM compound, 10 μM cytochrome c, absorbance 550 nm
Description: The rate of cytochrome c (10 μM) reduction was measured by monitoring the change in absorbance at 550 nm. Briefly the reaction was initiated by addition of 100 μM of the invention compounds to a mixture containing 50 mM phosphate buffer, 0.1 mM EDTA, pH 7.8, and 10 μM cytochrome c (Sigma, St. Louis, Mo. USA). For cytochrome c reduction by superoxide, xanthine oxidase (0.01 IU/mL) (Sigma, St. Louis, Mo. USA) was used in presence of xanthine (50 μM).

CEM leukemia cells = assay: C11-BODIPY581/591 oxidation in cell culture (lipid peroxidation); type: cell-based, human; settings: 2.5 or 1 μM, pretreatment 4 or 24 hours, glutathione depleted
Description: Lipid peroxidation in CEM leukemia cells was detected by utilizing the oxidant-sensitive lipophilic probe C11 BODIPY^581/591. Briefly, CEM cells (5×10^5 cell/mL) were treated with the test compounds at final concentrations of 1 and 2.5 μM, and incubated at 37° C. for 4 or 24 h in a humidified atmosphere containing 5% CO2 in air. Cells were treated with 500 nM C11 BODIPY^581/591 in phenol red-free RPMI-1640 media and incubated at 37° C. in the dark for 30 minutes. The cells were washed twice with phosphate buffered saline and oxidative stress was induced with 5 mM DEM in phenol red-free RPMI-1640 media for 90 minutes. Treated cells were collected by centrifugation at 300×g for 3 minutes and then washed twice with phosphate buffered saline. Cells were resuspended in 250 μL of phosphate buffered saline and were analyzed by FACS (FACS Calibur flow cytometer, Becton Dickinson) to monitor the change in intensity of the C11 BODIPY^581/591-green (oxidized) fluorescence signal.

[1] = system: bovine heart mitochondrial membranes; assay: Thiobarbituric acid reactive species (TBARS) assay; type: biochemical; settings: H2O2 generated using glucose oxidase
Description: Lipid peroxidation by hydrogen peroxide in bovine heart mitochondrial membranes was determined by measuring the amount of thiobarbituric acid reactive substances released. Bovine heart mitochondria (1 mg protein) prepared as described by Smith (38) were added to 800 μL of 50 mM phosphate buffer, pH 8.0, and subjected to oxidative stress by the addition of 25 mM glucose and 1 U/mL glucose oxidase from Aspergillus niger. Samples were incubated with or without test compounds at 37° C. for 30 minutes. Two hundred μL each of 1% (w/v) thiobarbituric acid and 35% (v/v) perchloric acid, as well as 0.1% (w/v) butylated hydroxytoluene (from a 2% stock solution in DMSO) were added. Samples were heated at 100° C. for 15 minutes. One-mL aliquots of each sample were taken and diluted in 2 mL of water, then extracted once with 2 mL of n-butanol. […] TBARS were determined fluorometrically from the emission spectrum (λex 515 nm; λem 550 nm) using a Varian fluorimeter. The malondialdehyde concentration was determined based on a standard curve created using serial dilutions of 10 mM 1,1,3,3-tetraethoxypropane hydrolyzed in 1% (v/v) H2SO4 at 4° C. overnight. The malondialdehyde concentration was expressed as nmoles manoldialdehyde per mg protein. Protein in aliquots of the homogenates was determined by the bicinchoninic acid method.

[2] = Stability of isolated free base on storage; type: physicochemical; settings: orange oil
Description: To a solution of 2.2 mg (4.4 μmol) acetyl ester 35 in 1 mL CH2Cl2 was added 17.5 μL (17.5 μmol) of DIBAL-H at −78° C. The reaction mixture was stirred at same temperature for 2 h than 1 mL of aqueous saturated sodium potassium tartrate was added slowly. The reaction mixture was allowed to warm to room temperature slowly add stirred for 3 h then separated. The aqueous layer was extracted with two portions of 5 mL of ethyl acetate. The combined organic layer was washed with brine, dried (Na2SO4) and concentrated under diminished pressure to give the product C as orange oil. HPLC found retain time in 21.82 min.

| SMILES | reduction of cytochrome c (cytochrome c) | protection against lipid peroxidation in cells (C11-BODIPY581/591 green fluorescence) (CEM leukemia cells) | preventing TBARS formation [1] | stability of isolated compound [2] |
| --- | --- | --- | --- | --- |
| Cc1nc(N(C)C)nc(CCCCCCCCCCO)c1O [Compound A, 2-N,N-dimethylamino-5-hydroxy-4-methyl-6-(10-hydroxydecyl)-pyrimidine] | clearly reduce cytochrome c |  |  |  |
| Cc1nc2c(c(CC[C@](C)(O)CCC[C@H](C)CCC[C@H](C)CCCC(C)C)c1O)CCN2C [Compound C, 4-((3R,7R,11R)-3-hydroxy-3,7,11,15-tetramethylhexadecyl)-1,6-dimethyl-2,3-dihydro-1H-pyrrolo[2,3-b]pyridine-5-ol] |  | better protection against lipid peroxidation than α-tocopherol in a concentration and time-dependent fashion; also recorded: clearly superior to α-tocopherol in quenching lipid peroxidation in a time- and dose-dependent fashion | more effective in preventing TBARS formation | degenerated after one day |
